# Patent US20040192686A1, “Benzoazine mono-N-oxides and benzoazine 1,4 dioxides and compositions therefrom for the therapeutic use in cancer treatments” (Auckland Uniservices Limited, priority 2003, published 2004)
# Where a name gives a salt, the structure may show the parent alone.
row,SMILES,melting point
1,"COCCNC(=O)Cc1ccc(Nc2nc3ccccc3[n+]([O-])n2)cc1 [Compound 53, 2-{4-[(1-Oxido-1,2,4-benzotriazin-3-yl)amino]phenyl}-N-(2-methoxyethyl)acetamide]",216 to 218 °C
2,"C=CCc1nc2cc(C)ccc2[n+]([O-])n1 [Compound 80, 3-Allyl-6-methyl-1,2,4-benzotriazine 1-oxide]",65 to 67 °C
3,"O=C(O)Cc1ccc(Nc2nc3ccccc3[n+]([O-])n2)cc1 [Compound 52, {4-[(1-Oxido-1,2,4-benzotriazin-3-yl)amino]phenyl}acetic acid]",243 to 245 °C
4,"COc1cccc2c1nc(N)n[n+]2[O-] [Compound 3y, 5-Methoxy-1,2,4-benzotriazin-3-amine 1-oxide]",267 °C (dec.)
5,"COc1ccc2nc(NCCN(C)C)n[n+]([O-])c2c1 (as salt: hydrochloride) [Compound 92, N^1-(7-Methoxy-1-oxido-1,2,4-benzotriazin-3-yl)-N^2,N^2-dimethyl-1,2-ethanediamine]",231 to 235 °C
6,Cl.[O-][n+]1nc(CCN2CCOCC2)nc2ccccc21,213 to 215 °C
7,"COCCc1cccc(Nc2nc3ccccc3[n+]([O-])n2)c1 [Compound 49, N-[3-(2-Methoxyethyl)phenyl]-1,2,4-benzotriazin-3-amine 1-oxide]",122 to 124 °C
8,"Nc1nc2cc(F)ccc2[n+]([O-])n1 [Compound 3t, 6-Fluoro-1,2,4-benzotriazin-3-amine 1-oxide]",276 to 280 °C
9,"Cc1cccc2c1nc(N)n[n+]2[O-] [Compound 3z, 5-Methyl-1,2,4-benzotriazin-3-amine 1-oxide]",253 to 255 °C
10,"Cc1ccc2c(c1)nc(NCCN(C)C)n[n+]2[O-] [Compound 76, N^1,N^1-Dimethyl-N^2-(6-methyl-1-oxido-1,2,4-benzotriazin-3-yl)-1,2-ethanediamine]",143 to 145 °C
11,"Nc1nc2cccc(C(F)(F)F)c2[n+]([O-])n1 [Compound 3e, 8-Trifluoromethyl-1,2,4-benzotriazin-3-amine 1-oxid]",280 to 286 °C (dec.)
12,"COc1ccc2nc(NCCN3CCOCC3)n[n+]([O-])c2c1 [Compound 94, 7-Methoxy-N-[2-(4-morpholinyl)ethyl]-1,2,4-benzotriazin-3-amine 1-oxide]",208 to 212 °C
13,"Cc1cc(C)c2c(c1)nc(NCCN(C)C)n[n+]2[O-] [Compound 109, N^1-(6,8-Dimethyl-1-oxido-1,2,4-benzotriazin-3-yl)-N^2,N^2-dimethyl-1,2-ethanediamine]",176 to 179 °C
14,"N#CCCNc1nc2ccccc2[n+]([O-])n1 [Compound 26, 3-[(1-Oxido-1,2,4-benzotriazin-3-yl)amino]propanenitrile]",191 to 193 °C
15,"Nc1nc2ccc(OCCN3CCOCC3)cc2[n+]([O-])n1 [Compound 17, 7-[2-(4-Morpholinyl)ethoxy]-1,2,4-benzotriazin-3-amin 1-oxide]",175 to 181 °C
16,"Cc1ccc2c(c1)nc(N)n[n+]2[O-] [Compound 3r, 6-Methyl-1,2,4-benzotriazin-3-amine 1-oxide]",263 °C (dec.)

row,SMILES,melting point
1,"CCc1nc2ccc(OCCN3CCOCC3)cc2[n+]([O-])n1 [Compound 99, 3-Ethyl-7-[2-(4-morpholinyl)ethoxy]-1,2,4-benzotriazine 1-oxide]",99 to 101 °C
2,"Nc1nc2ccc(C(F)(F)F)cc2[n+]([O-])n1 [Compound 3m, 7-Trifluoromethyl-1,2,4-benzotriazin-3-amine 1-oxide]",290 °C (dec.)
3,"Nc1nc2ccc(F)cc2[n+]([O-])n1 [Compound 3k, 7-Fluoro-1,2,4-benzotriazin-3-amin 1-oxide]",280 to 290 °C (dec.)
4,"CCN(CCCNc1nc2ccccc2[n+]([O-])n1)C(=O)OC(C)(C)C [Compound 32, tert-Butyl 3-[(1-oxido-1,2,4-benzotriazin-3-yl)amino]propyl(ethyl)carbamate]",64 to 66 °C
5,"[O-][n+]1nc(NCCN2CCOCC2)nc2ccccc21 [Compound 41, N-[2-(4-Morpholinyl)ethyl]-1,2,4-benzotriazin-3-amine 1-oxide]",170 to 172 °C
6,"CCN(CC)c1ccc2c(c1)nc(N)n[n+]2[O-] [Compound 13, N^6, N^6-Diethyl-1,2,4-benzotriazine-3,6-diamine 1-oxide]",247 to 251 °C
7,"[N-]=[N+]=NCCOCCNc1nc2ccccc2[n+]([O-])n1 [Compound 34, 3-{[2-(2-Azidoethoxy)ethyl]amino}-1,2,4-benzotriazine 1-oxide]",102 to 104 °C
8,"C=Cc1nc2ccccc2[n+]([O-])n1 [Compound 59, 3-Vinyl-1,2,4-benzotriazine 1-oxide]",85 to 86 °C
9,"[O-][n+]1nc(CC2CO2)nc2ccccc21 (stereo not shown) [Compound 62, 3-(2-Oxiranylmethyl)-1,2,4-benzotriazine 1-oxide]",105 to 107 °C
10,"COc1ccc2nc(NCCN3CCCCC3)n[n+]([O-])c2c1 [Compound 93, 7-Methoxy-N-[2-(1-piperidinyl)ethyl]-1,2,4-benzotriazin-3-amine 1-oxide]",162 to 165 °C
11,CN(C)CCCc1nc2ccccc2[n+]([O-])n1.Cl,228 to 230 °C
12,"Nc1nc2ccc(OCCBr)cc2[n+]([O-])n1 [Compound 15, 7-(2-Bromoethoxy)-1,2,4-benzotriazin-3-amine 1-oxide]",228 to 230 °C
13,"Cc1ccc2c(c1)nc(NCCN1C(C)CCCC1C)n[n+]2[O-] (stereo not shown) [Compound 78, N-[2-(2,6-Dimethyl-1-piperidinyl)ethyl]-6-methyl-1,2,4-benzotriazin-3-amine 1-oxide]",162 to 165 °C
14,"Nc1nc2c([N+](=O)[O-])cccc2[n+]([O-])n1 [Compound 3ac, 5-Nitro-1,2,4-benzotriazin-3-amine-1-oxide]",269 to 272 °C
15,"CC(C)(C)ONC(=O)CCOCCNc1nc2ccccc2[n+]([O-])n1 [Compound 35, 3-{[2-(2-tert-Butyloxycarbamoylethoxy)ethyl]amino}-1,2,4-benzotriazine 1-oxide]",134 to 137 °C
16,"Cc1ccc2c(c1)nc(Cl)n[n+]2[O-] [Compound 73, 3-Chloro-6-methyl-1,2,4-benzotriazine 1-oxide]",156 to 158 °C

# Results, then the molecule that gave them:
row,melting point,SMILES
1,122 to 124 °C,"CCc1nc2cc(F)ccc2[n+]([O-])n1 [Compound 160, 3-Ethyl-6-fluoro-1,2,4-benzotriazine 1-oxide]"
2,178 to 182 °C,"O=C(NCCOCCNc1nc2ccccc2[n+]([O-])n1)c1cccc2cc3ccccc3nc12 [Compound 121, N-(2-{2-[(1-Oxido-1,2,4-benzotriazin-3-yl)amino]ethoxy}ethyl)-4-acridinecarboxamide]"
3,131 to 132 °C,"Cc1ccc2c(c1)nc(NCCCN1CCOCC1)n[n+]2[O-] [Compound 139, 6-Methyl-N-[3-(4-morpholinyl)propyl]-1,2,4-benzotriazin-3-amine 1-Oxide]"
4,169 to 171 °C,"Cc1cccc2nc(NCCN3C(C)CCCC3C)n[n+]([O-])c12 (stereo not shown) [Compound 164, N-[2-(2,6-Dimethyl-1-piperidinyl)ethyl]-8-methyl-1,2,4-benzotriazin-3-amine 1-Oxide]"
5,145 to 148 °C,"CC(C)(C)c1ccc2c(c1)nc(NCCN1CCCCC1)n[n+]2[O-] [Compound 158, 6-tert-Butyl-N-[2-(1-piperidinyl)ethyl]-1,2,4-benzotriazin-3-amine 1-Oxide]"
6,132 to 134 °C,"CC(C)(C)c1ccc2c(c1)nc(NCCN1CCOCC1)n[n+]2[O-] [Compound 157, 6-tert-Butyl-N-[2-(4-morpholinyl)ethyl]-1,2,4-benzotriazin-3-amine 1-Oxide]"
7,182 to 184 °C,"COc1cc2c(cc1C)nc(NCCN(C)C)n[n+]2[O-] [Compound 118, N^1,N^1-Dimethyl-N^2-(7-methoxy-6-methyl-1-oxido-1,2,4-benzotriazin-3-yl)-1,2-ethanediamine]"
8,88 to 90 °C,"CCCN(CCC)CCNc1nc2cc(C)ccc2[n+]([O-])n1 [Compound 140, N^1-(6-Methyl-1-oxido-1,2,4-benzotriazin-3-yl)-N^2,N^2-dipropyl-1,2-ethanediamine]"
9,128 to 130 °C,"CCN(CC)CCNc1nc2cc(Cl)ccc2[n+]([O-])n1 [Compound 134, N^1-(6-Chloro-1-oxido-1,2,4-benzotriazin-3-yl)-N^2,N^2-diethyl-1,2-ethanediamine]"
10,211 to 213 °C,"Cc1cc2nc(NCCN3CCOCC3)n[n+]([O-])c2cc1C [Compound 167, 6,7-Dimethyl-N-[2-(4-morpholinyl)ethyl]-1,2,4-benzotriazi n-3-amine 1-Oxide]"
11,180 to 182 °C,"COc1cc2nc(Cl)n[n+]([O-])c2cc1C [Compound 113, 3-Chloro-6-methoxy-7-methyl-1,2,4-benzotriazine 1-oxide]"
12,118 to 120 °C,"[O-][n+]1nc(Cl)nc2cc(C(F)(F)F)ccc21 [Compound 142, 3-Chloro-6-trifluoromethyl-1,2,4-benzotriazine 1-Oxide]"
13,78 to 80 °C,"CCN(CC)CCNc1nc2cc(C)ccc2[n+]([O-])n1 [Compound 137, N^1,N^1-Diethyl-N^2-(6-methyl-1-oxido-1,2,4-benzotriazin-3-yl)-1,2-ethanediamine]"
14,145 to 147 °C,"CC(C)c1ccc2c(c1)nc(NCCN1CCOCC1)n[n+]2[O-] [Compound 149, 6-Isopropyl-N-[2-(4-morpholinyl)ethyl]-1,2,4-benzotriazin-3-amine 1-Oxide]"
15,175 to 180 °C,"Nc1nc2ccccc2n[n+]1[O-] [Compound 126, 1,2,4-Benzotriazin-3-amine 2-oxide]"
16,149 to 151 °C,"[O-][n+]1nc(Cl)nc2cc(Cl)ccc21 [Compound 133, 3,6-Dichloro-1,2,4-benzotriazine 1-Oxide]"
17,91 to 93 °C,"CCCN(CCC)CCNc1nc2cccc(C)c2[n+]([O-])n1 [Compound 165, N^1-(8-Methyl-1-oxido-1,2,4-benzotriazin-3-yl)-N^2,N^2-dipropyl-1,2-ethanediamine]"
